For test [1], the target named is isolated recombinant JAK2 kinase domain (Homo sapiens (Human), UniProt O60674). Description: JAK2 enzyme assay (Caliper LabChip, Ki). It counts as biochemical.
The target in test [2] is isolated recombinant JAK1 kinase domain (Homo sapiens (Human), UniProt P23458). Description: JAK1 enzyme assay (Caliper LabChip, Ki). It counts as biochemical.
The mark [3] stands for this setting: isolated recombinant JAK2 kinase domain, 0.2 nM enzyme, ATP 25 μM.
Setting [4] is: isolated recombinant JAK1 kinase domain, 1.5 nM enzyme, ATP 25 μM.

Read-outs that look alike come from different tables or passages of the source.

Sequence of isolated recombinant JAK2 kinase domain (O60674 849-1124): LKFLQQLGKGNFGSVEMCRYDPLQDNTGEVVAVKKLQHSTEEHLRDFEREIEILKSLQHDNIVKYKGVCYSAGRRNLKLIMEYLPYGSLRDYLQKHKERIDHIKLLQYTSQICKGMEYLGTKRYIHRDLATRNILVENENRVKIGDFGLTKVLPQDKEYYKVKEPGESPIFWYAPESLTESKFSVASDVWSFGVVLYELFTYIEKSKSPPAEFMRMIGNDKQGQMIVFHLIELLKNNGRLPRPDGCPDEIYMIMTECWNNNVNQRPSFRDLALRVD
Sequence of isolated recombinant JAK1 kinase domain (P23458 875-1153): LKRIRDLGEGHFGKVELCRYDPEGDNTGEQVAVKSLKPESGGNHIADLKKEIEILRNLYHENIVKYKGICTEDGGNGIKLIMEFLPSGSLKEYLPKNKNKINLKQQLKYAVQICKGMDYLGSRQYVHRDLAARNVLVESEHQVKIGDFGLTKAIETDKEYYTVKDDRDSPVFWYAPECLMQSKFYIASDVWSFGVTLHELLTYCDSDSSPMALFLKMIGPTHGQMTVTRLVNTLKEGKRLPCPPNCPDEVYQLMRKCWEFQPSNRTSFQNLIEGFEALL

With `CN1CCN(C(=O)Cn2cc(Nc3nc4c(N5C[C@H]6CC[C@@H](C5)[C@H]6OCc5ccccc5)cccn4n3)cn2)CC1` [Example 1, 2-[4-[[8-[(1S,5R)-8-benzyloxy-3-azabicyclo[3.2.1]octan-3-yl]-[1,2,4]triazolo[1,5-a]pyridin-2-yl]amino]pyrazol-1-yl]-1-(4-methylpiperazin-1-yl)ethanone], the figures for the Ki in test [1] (setting [3]) and in test [2] (setting [4]) were 0.6 nM and 0.2 nM, respectively.
With `CN1CCN(C(=O)Cn2cc(Nc3nc4c(N5CC6CCC(C5)N6C(=O)N5CC(C(F)(F)F)C5)cccn4n3)cn2)CC1` [Example 2, 1-(4-methylpiperazin-1-yl)-2-[4-[[8-[8-[3-(trifluoromethyl)azetidine-1-carbonyl]-3,8-diazabicyclo[3.2.1]octan-3-yl]-[1,2,4]triazolo[1,5-a]pyridin-2-yl]amino]pyrazol-1-yl]ethanone], the inhibition constant (Ki) in test [1] (setting [3]) came to 0.4 nM; in test [2] (setting [4]), 0.5 nM.
`CN1CCN(C(=O)Cn2cc(Nc3nc4c(N5CC6CCC(C5)N6C(=O)C5CSC5)cccn4n3)cn2)CC1` [Example 3, 1-(4-methylpiperazin-1-yl)-2-[4-[[8-[8-(thietane-3-carbonyl)-3,8-diazabicyclo[3.2.1]octan-3-yl]-[1,2,4]triazolo[1,5-a]pyridin-2-yl]amino]pyrazol-1-yl]ethanone]: the Ki in test [1] (setting [3]) was determined as 0.6 nM; in test [2] (setting [4]), 0.5 nM.
The matching figures for `CN1CCN(C(=O)Cn2cc(Nc3nc4c(N5CC6CCCC(C5)N6C(=O)CCC(F)(F)F)cccn4n3)cn2)CC1` [Example 4, 4,4,4-trifluoro-1-[3-[2-[[1-[2-(4-methylpiperazin-1-yl)-2-oxo-ethyl]pyrazol-4-yl]amino]-[1,2,4]triazolo[1,5-a]pyridin-8-yl]-3,9-diazabicyclo[3.3.1]nonan-9-yl]butan-1-one]: 0.8 nM and 0.5 nM.
The corresponding values for `CN1CCN(C(=O)Cn2cc(Nc3nc4c(N5CC6CCC(C5)N6C(=O)CCC(F)(F)F)cccn4n3)cn2)CC1` [Example 5, 4,4,4-trifluoro-1-[3-[2-[[1-[2-(4-methylpiperazin-1-yl)-2-oxo-ethyl]pyrazol-4-yl]amino]-[1,2,4]triazolo[1,5-a]pyridin-8-yl]-3,8-diazabicyclo[3.2.1]octan-8-yl]butan-1-one] are 1.2 nM and 0.6 nM.
The matching figures for `CN1CCN(C(=O)Cn2cc(Nc3nc4c(N5CC6CCC(C5)N6C(=O)[C@H]5C[C@H](C(F)(F)F)C5)cccn4n3)cn2)CC1` [Example 6, formic acid; 1-(4-methylpiperazin-1-yl)-2-[4-[[8-[8-[3-(trifluoromethyl)cyclobutanecarbonyl]-3,8-diazabicyclo[3.2.1]octan-3-yl]-[1,2,4]triazolo[1,5-a]pyridin-2-yl]amino]pyrazol-1-yl]ethanone]: 0.6 nM and 0.7 nM.
With `CN1CCN(C(=O)Cn2cc(Nc3nc4c(C5=CC6CCC(C5)N6C(=O)OCC(F)(F)F)cccn4n3)cn2)CC1` (stereo not drawn) [Example 7, 2,2,2-trifluoroethyl 3-[2-[[1-[2-(4-methylpiperazin-1-yl)-2-oxo-ethyl]pyrazol-4-yl]amino]-[1,2,4]triazolo[1,5-a]pyridin-8-yl]-8-azabicyclo[3.2.1]oct-3-ene-8-carboxylate], the inhibition constant Ki in test [1] and in test [2] was 0.7 nM each time.
For the compound `CN1CCN(C(=O)Cn2cc(Nc3nc4c(N5CC6CCC(C5)N6C(=O)CC5CC(F)(F)C5)cccn4n3)cn2)CC1` [Example 8, 2-(3,3-difluorocyclobutyl)-1-[3-[2-[[1-[2-(4-methylpiperazin-1-yl)-2-oxo-ethyl]pyrazol-4-yl]amino]-[1,2,4]triazolo[1,5-a]pyridin-8-yl]-3,8-diazabicyclo[3.2.1]octan-8-yl]ethanone], the Ki in test [1] (setting [3]) is 0.7 nM; in test [2] (setting [4]), 0.6 nM.
The matching figures for `CN1CCN(C(=O)Cn2cc(Nc3nc4c(N5CC6CCC(C5)N6C(=O)CC5CSCCS5)cccn4n3)cn2)CC1` (stereo not drawn) [Example 9, 2-(1,4-dithian-2-yl)-1-[3-[2-[[1-[2-(4-methylpiperazin-1-yl)-2-oxo-ethyl]pyrazol-4-yl]amino]-[1,2,4]triazolo[1,5-a]pyridin-8-yl]-3,8-diazabicyclo[3.2.1]octan-8-yl]ethanone]: 0.9 nM and 0.6 nM.
As for `O=C(Cn1cc(Nc2nc3c(N4CC5CCC(C4)N5C(=O)CCC(F)(F)F)cccn3n2)cn1)N1CCN(C2CCOCC2)CC1` [Example 10, 4,4,4-trifluoro-1-[3-[2-[[1-[2-oxo-2-(4-tetrahydropyran-4-ylpiperazin-1-yl)ethyl]pyrazol-4-yl]amino]-[1,2,4]triazolo[1,5-a]pyridin-8-yl]-3,8-diazabicyclo[3.2.1]octan-8-yl]butan-1-one], the Ki in test [1] (setting [3]) was found to be 1.2 nM; in test [2] (setting [4]), 0.7 nM.
On to `CN(C1CCN(C(=O)Cn2cc(Nc3nc4c(N5CC6CCC(C5)N6C(=O)CCC(F)(F)F)cccn4n3)cn2)CC1)C1COC1` [Example 11, 4,4,4-trifluoro-1-[3-[2-[[1-[2-[4-[methyl(oxetan-3-yl)amino]-1-piperidyl]-2-oxo-ethyl]pyrazol-4-yl]amino]-[1,2,4]triazolo[1,5-a]pyridin-8-yl]-3,8-diazabicyclo[3.2.1]octan-8-yl]butan-1-one], for which the Ki in test [1] (setting [3]) turned out to be 1.4 nM; in test [2] (setting [4]) it was 0.7 nM.
In the case of `CN1CCN(C(=O)Cn2cc(Nc3nc4c(C5=CC6CCC(C5)N6C(=O)CCC(F)(F)F)cccn4n3)cn2)CC1` (stereo not drawn) [Example 13, 4,4,4-trifluoro-1-[3-[2-[[1-[2-(4-methylpiperazin-1-yl)-2-oxo-ethyl]pyrazol-4-yl]amino]-[1,2,4]triazolo[1,5-a]pyridin-8-yl]-8-azabicyclo[3.2.1]oct-3-en-8-yl]butan-1-one], in test [2] (setting [4]), the Ki stood at 0.9 nM.
On the same count and under the same terms, for `CN1CCN(C(=O)Cn2cc(Nc3nc4c(C5=CC6CCC(C5)N6C(=O)CCC(F)(F)F)cccn4n3)cn2)CC1` (stereo not drawn) [Example 18, 4,4,4-trifluoro-1-[3-[2-[[1-[2-(4-methylpiperazin-1-yl)-2-oxo-ethyl]pyrazol-4-yl]amino]-[1,2,4]triazolo[1,5-a]pyridin-8-yl]-8-azabicyclo[3.2.1]oct-3-en-8-yl]butan-1-one] the value was 1.5 nM; for `CN1CCN(C(=O)Cn2cc(Nc3nc4c(N5CC6CCC(C5)N6C(=O)C5CC6C(C5)C6(F)F)cccn4n3)cn2)CC1` (stereo not drawn) [Example 57, 2-[4-[[8-[8-(6,6-difluorobicyclo[3.1.0]hexane-3-carbonyl)-3,8-diazabicyclo[3.2.1]octan-3-yl]-[1,2,4]triazolo[1,5-a]pyridin-2-yl]amino]pyrazol-1-yl]-1-(4-methylpiperazin-1-yl)ethanone], 4.8 nM; for `CN1CCN(C(=O)Cn2cc(Nc3nc4c(N5CC6CCC(C5)N6C(=O)c5ccccc5)cccn4n3)cn2)CC1` [Example 70, 2-[4-[[8-(8-benzoyl-3,8-diazabicyclo[3.2.1]octan-3-yl)-[1,2,4]triazolo[1,5-a]pyridin-2-yl]amino]pyrazol-1-yl]-1-(4-methylpiperazin-1-yl)ethanone], 4.2 nM.
On to `CN1CCN(C(=O)Cn2cc(Nc3nc4c(N5CC6CCC(C5)N6CCCC(F)(F)F)cccn4n3)cn2)CC1` [Example 73, 1-(4-methylpiperazin-1-yl)-2-[4-[[8-[8-(4,4,4-trifluorobutyl)-3,8-diazabicyclo[3.2.1]octan-3-yl]-[1,2,4]triazolo[1,5-a]pyridin-2-yl]amino]pyrazol-1-yl]ethanone], for which the Ki in test [2] (setting [4]) was found to be 8.8 nM.
Regarding `CN1CCN(C(=O)Cn2cc(Nc3nc4c(N5CC6COCC(C5)N6C(=O)CCC(F)(F)F)cccn4n3)cn2)CC1` [Example 130, 4,4,4-trifluoro-1-[7-[2-[[1-[2-(4-methylpiperazin-1-yl)-2-oxo-ethyl]pyrazol-4-yl]amino]-[1,2,4]triazolo[1,5-a]pyridin-8-yl]-3-oxa-7,9-diazabicyclo[3.3.1]nonan-9-yl]butan-1-one], the inhibitory constant (Ki) in test [1] (setting [3]) turned out to be 26.6 nM.
As for `CN1CCN(C(=O)Cn2cc(Nc3nc4c(N5C[C@H]6CC[C@@H](C5)[C@H]6OCc5ccncc5)cccn4n3)cn2)CC1` [Example 144, 1-(4-methylpiperazin-1-yl)-2-[4-[[8-[rac-(1S,5R)-8-(4-pyridylmethoxy)-3 - azabicyclo[3.2.1]octan-3-yl]-[1,2,4]triazolo[1,5-a]pyridin-2-yl]amino]pyrazol-1-yl]ethanone], in test [2] (setting [4]), the inhibition constant (Ki) amounted to 0.8 nM.
The same measure, in the same setting: next, `CN1CCN(C(=O)Cn2cc(Nc3nc4c(N5C[C@H]6CC[C@@H](C5)[C@H]6NCCC(F)(F)F)cccn4n3)cn2)CC1` [Example 145, 1-(4-methylpiperazin-1-yl)-2-(4-((8-((1R,5 S,8r)-8-((3,3,3-trifluoropropyl)amino)-3-azabicyclo[3.2.1]octan-3-yl)-[1,2,4]triazolo[1,5-a]pyridin-2-yl)amino)-1H-pyrazol-1-yl)ethanone]: 1.3 nM; `Cc1ccc(CO[C@H]2[C@@H]3CC[C@H]2CN(c2cccn4nc(Nc5cnn(CC(=O)N6CCN(C)CC6)c5)nc24)C3)cn1` [Example 151, 1-(4-methylpiperazin-1-yl)-2-[4-[[8-[rac-(1S,5R)-8-[(6-methyl-3-pyridyl)methoxy]-3-azabicyclo[3.2.1]octan-3-yl]-[1,2,4]triazolo[1,5-a]pyridin-2-yl]amino]pyrazol-1-yl]ethanone]: 0.6 nM.
On to `CN1CCN(C(=O)Cn2cc(Nc3nc4c(N5CC6CCC(C5)N6C(=O)C5(C#N)CCCC5)cccn4n3)cn2)CC1` [Example 155, 1-[3-[2-[[1-[2-(4-methylpiperazin-1-yl)-2-oxo-ethyl]pyrazol-4-yl]amino]-[1,2,4]triazolo[1,5-a]pyridin-8-yl]-3,8-diazabicyclo[3.2.1]octane-8-carbonyl]cyclopentane-carbonitrile], for which, in test [1] (setting [3]), the Ki worked out at 21 nM.
Turning to `CN1CCN(C(=O)Cn2cc(Nc3nc4c(N5C[C@H]6CC[C@@H](C5)[C@@H]6OCc5ccncc5)cccn4n3)cn2)CC1` [Example 189, 1-(4-methylpiperazin-1-yl)-2-(4-((8-((1R,5 S,8s)-8-(pyridin-4-ylmethoxy)-3-azabicyclo[3.2.1]octan-3-yl)-[1,2,4]triazolo[1,5-a]pyridin-2-yl)amino)-1H-pyrazol-1-yl)ethanone], the inhibitory constant (Ki) in test [2] (setting [4]) was 0.5 nM.

As usually defined, the Ki is the equilibrium dissociation constant of an inhibitor or competing ligand from its target.
